Experimental data reported in patent US8629100B2, “Method of inhibiting clostridium difficile by administration of oritavancin” (The Medicines Company, priority 2007, dated 2014).
“Also recorded” adds a separate entry of the source.

Columns and labels:
Type in all cases: cell-based
[1] = tested on: Staphylococcus aureus NCTC 6571; assay: Growth on antibiotic-exposed cellulose acetate filters (Example 3C); conditions: overnight culture
Protocol: (§1) One mL solutions (containing no C. difficile spores) were processed as in Experiment 2B and filters placed onto Braziers CCEY agar. Onto the filters were inoculated 2×20 μL of:
c) Staphylococcus aureus NCTC 6571 (Oxford strain, overnight culture).
(§2) Growth/no growth was recorded following anaerobic incubation.

[2] = tested on: C. difficile PCR ribotype 027 spores; assay: Phase-contrast microscopy of spore germination/outgrowth; conditions: 10 mg/L for 2 h, washed 3x in PBS
Protocol: C. difficile spores were also exposed to 10 mg/L antimicrobial for 2 h, washed 3× in sterile PBS, re-suspended and inoculated into Brazier's broth medium (pH 7). Samples were removed at 2, 4, 6, 24, 32 and 48 h. Slides were viewed under phase-contrast microscopy and percentages of phase-bright spores, phase-dark spores and vegetative cells were recorded (FIG. 4).
Statistical analyses were performed by transforming percentage data using an Arcsin Transformation and analysed using a Wilcoxon signed rank test. P<0.05 was considered statistically significant. Supra-MIC concentrations of all antimicrobials prevented outgrowth but not germination of C. difficile spores.

[3] = tested on: C. difficile spores (PCR ribotypes 001, 106 and 027); assay: Viability (recovery) of spores after antibiotic exposure, cellulose acetate filtration (Examples 3A, 3B)
Protocol: The experiments were in general performed by mixing C. difficile spores with an antibiotic, filtering the solution through cellulose acetate filters to collect the spores, applying the spore-containing filters to nutrient agar, and determining the number of spores remaining on the filters after a selected period of time.
Therefore, the initial experiment included dilution of antimicrobial-containing spore suspensions prior to filtration and washing. Reaction volumes were 1 mL for all antimicrobial/control solutions.
1 mL of control (de-ionised water+/−Tween-80) and test (antimicrobial containing) solutions were inoculated with 10 μL C. difficile spores (3 strains; PCR ribotypes 001, 106 and 027). Spore suspensions (time=1 min or 30 min) were transferred to filtration cupules and the appropriate volume of diluent (sterile de-ionised water+/−Tween-80) was added to achieve the dilution factors noted above. Samples were filtered onto cellulose acetate filters and washed with a further 50 mL of the appropriate diluent. Filters were transferred aseptically to Braziers CCEY agar containing 5 mg/L lysozyme and 2% lysed horse blood. This procedure was completed in duplicate. The culture media were incubated in an anaerobic atmosphere at 37° C. for 48 h and the numbers of C. difficile colonies were recorded.
Diluent was first added to filtration cupules. 1 mL reactions were then added to the appropriate diluent (1 min and 30 min after reaction formation) and filtered onto cellulose acetate filters. The filters were washed with 50 mL of the appropriate diluent. The filters were then transferred aseptically to Braziers CCEY agar containing 5 mg/L lysozyme and 2% lysed horse blood. This procedure was completed in duplicate. Culture media were incubated in an anaerobic atmosphere at 37° C. for 48 h and the numbers of C. difficile colonies recorded

[4] = tested on: C. difficile PCR ribotype 001 (vegetative, spores); assay: Growth on antibiotic-exposed cellulose acetate filters (Example 3C); conditions: for Growth of vegetative C. difficile on filters through which antibiotic had been filtered: PCR ribotype 001 overnight culture, anaerobic incubation; for Growth of C. difficile spores on filters through which antibiotic had been filtered: PCR ribotype 001 spores
Protocol: as §1
a) Vegetative C. difficile (an overnight culture of PCR ribotype 001)
b) C. difficile spores (PCR ribotype 001), or
as §2

[5] = tested on: indigenous gut microflora; assay: In vitro human gut model: indigenous gut microflora counts; conditions: for Decline in Bacteroides populations / Decline in enterococcal populations: following instillation, period E, vessel 3
Excerpt: The gut model was designed to allow the study of the intestinal microflora in the low pH, carbohydrate-excess conditions of the proximal colon and the carbohydrate-depleted, non-acidic conditions of the distal colon (Macfarlane et al., Microb Ecol 1998; 35: 180-7). Microbiological and physicochemical measurements within the gut model vessels were validated against the intestinal contents of sudden death victims (Macfarlane et al., Microb Ecol 1998; 35: 180-7). Each gut model consists of three fermentation vessels connected in a weir cascade system top-fed with growth medium at a controlled rate (D=0.015 h^−1). Vessels were sparged with oxygen-free nitrogen to ensure anaerobiosis, heated via a water-jacketed system (37° C.) and maintained at specific pH using fermenter controller units (Biosolo 3, Brighton Systems, UK) delivering 0.5 M HCl/NaOH. Vessel 1 (280 mL) was operated at pH 5.5 and high substrate availability, thus reflecting the conditions within the proximal colon, while vessels 2 and 3 (300 mL) were operated at pH 6.2 and 6.8, respectively, with low substrate availability, thus reflecting the conditions within the distal colon. The gut model was primed with faecal slurry ˜10% (w/v) and allowed to equilibrate with respect to bacterial populations for 14 days.
Faecal samples were collected from five healthy elderly (>65 years) volunteers and immediately transported to the laboratory under anaerobic conditions (GasPak, Oxoid, Basingstoke, UK). […] C. difficile-negative faeces were pooled and a coarse-filtered slurry (˜10% w/v) in sterile pre-reduced phosphate-buffered saline was prepared. Vessels of the gut models were filled to approximately two-thirds volume, and the growth medium pumps were started.
Major culturable components of the indigenous gut microflora and C. difficile were enumerated by viable counting (log10 cfu/mL) on selective and non-selective agars as reported previously (Freeman et al., J Antimicrob Chemother 2005; 56: 717-25). Bacterial groups enumerated were: total facultative anaerobes, facultatively anaerobic lactose fermenters, total anaerobes, bifidobacteria, Bacteroides fragilis group, total clostridia, lactobacilli, enterococci, total C. difficile and C. difficile spores. C. difficile cytotoxin production was quantified using a Vero cell cytotoxicity assay as described previously (Freeman et al., J Antimicrob Chemother 2003; 52: 96-102). Cytotoxin titres were expressed in log10 relative units (RU). Only C. difficile total bacterial counts, spore counts and cytotoxin titres were enumerated in vessel 1 of the gut model.
The use of the gut model to evaluate therapeutic interventions for CDI has been described previously (Freeman et al., J Antimicrob Chemother 2007; 60: 83-91; Freeman et al., J Antimicrob Chemother 2005; 56: 717-25). Briefly, following inoculation of each gut model with the faecal slurry, no further interventions were made for 13 days (period A). During period A, bacterial populations were enumerated every 2 days. Next (day 14), vessel 1 of each gut model was inoculated with a single inoculum of ˜10^7 cfu C. difficile PCR ribotype 027 spores (Freeman et al., J Antimicrob Chemother 2003; 52: 96-102), with no further interventions for 7 days (period B). From this point onwards, bacterial populations were enumerated daily.

[6] = Example 3A: diluent added after reaction solutions, 1 min and 30 min exposure
[7] = Example 3B: diluent added to cupules before reaction solutions, 1 min and 30 min

| Structure (SMILES) | Growth of S. aureus NCTC 6571 on filters through which antibiotic had been filtered [1] | Outgrowth of C. difficile spores prior-exposed to antimicrobial [2] | Recovery of C. difficile spores [3, 6] | Recovery of C. difficile spores [3, 7] | Growth of vegetative C. difficile on filters through which antibiotic had been filtered [4] | Growth of C. difficile spores on filters through which antibiotic had been filtered [4] | Vegetative C. difficile recovered on exposed filters ([4]; on one plate) [cfu] | Decline in Bacteroides populations [5] [log10 cfu/mL] | Decline in enterococcal populations [5] [log10 cfu/mL] | Bifidobacteria after cessation of instillation ([5]; period F) | Bifidobacteria lower than steady-state (period A) after cessation of instillation ([5]; period F) [log10 cfu/mL] |
| --- | --- | --- | --- | --- | --- | --- | --- | --- | --- | --- | --- |
| CN[C@H](CC(C)C)C(=O)N[C@H]1C(=O)N[C@@H](CC(N)=O)C(=O)N[C@H]2C(=O)N[C@H]3C(=O)N[C@H](C(=O)N[C@H](C(=O)O)c4cc(O)cc(O)c4-c4cc3ccc4O)[C@H](O[C@H]3C[C@](C)(N)[C@@H](O)[C@H](C)O3)c3ccc(c(Cl)c3)Oc3cc2cc(c3O[C@@H]2O[C@H](CO)[C@@H](O)[C@H](O)[C@H]2O[C@H]2C[C@](C)(NCc3ccc(-c4ccc(Cl)cc4)cc3)[C@@H](O)[C@H](C)O2)Oc2ccc(cc2Cl)[C@H]1O [oritavancin, N-(4-(4-chlorophenyl)benzyl)A82846B] | grew | much lower than control; also recorded: significantly inhibited | 0 % of controls | 0 % of controls | Greatly reduced numbers | unrecoverable | 1 | ~1 | ~2 | remained below the limits of detection |  |
| CN[C@H](CC(C)C)C(=O)N[C@H]1C(=O)N[C@@H](CC(N)=O)C(=O)N[C@H]2C(=O)N[C@H]3C(=O)N[C@H](C(=O)N[C@H](C(=O)O)c4cc(O)cc(O)c4-c4cc3ccc4O)[C@H](O)c3ccc(c(Cl)c3)Oc3cc2cc(c3O[C@@H]2O[C@H](CO)[C@@H](O)[C@H](O)[C@H]2O[C@H]2C[C@](C)(N)[C@H](O)[C@H](C)O2)Oc2ccc(cc2Cl)[C@H]1O [vancomycin] | grew | not observed | 25-60 % of controls | 70-80 % of controls | grew | good growth |  | ~6 | ~1 |  | ~2 |
